Results as given in ChEMBL document CHEMBL1158849, “New bioactive triterpenoids from Melia volkensii” (J Nat Prod, 1998).
In brackets after ≈: the same amount, converted by molar mass.

Columns and labels:
MIA PaCa-2 = test: Cytotoxicity against human MIAPaCa2 cells after 7 days by MTT assay; format: functional; conditions: MIA PaCa-2, 168 h, read-out: ED50 (the source's name)
PC-3 = test: Cytotoxicity against human PC3 cells after 7 days by MTT assay; format: functional; conditions: PC-3, 168 h, read-out: ED50 (the source's name)
MCF7 = test: Cytotoxicity against human MCF7 cells after 7 days by MTT assay; format: functional; conditions: MCF7, 168 h, read-out: ED50 (the source's name)
A549 = test: Cytotoxicity against human A549 cells after 7 days by MTT assay; format: functional; conditions: A549, 168 h, read-out: ED50 (the source's name)
[1] = Toxicity against brine shrimp larvae; format: organism-based; conditions: artemia, in vivo
A498 = test: Cytotoxicity against human A498 cells after 7 days by MTT assay; format: functional; conditions: A498, 168 h, read-out: ED50 (the source's name)
Aedes aegypti = test: Cytotoxicity against yellow fever mosquitoes; format: functional
HT-29 = test: Cytotoxicity against human HT-29 cells after 7 days by MTT assay; format: functional; conditions: HT-29, 168 h, read-out: ED50 (the source's name)

| Structure (SMILES) | EC50 (MIA PaCa-2) [µg/mL] | EC50 (PC-3) [µg/mL] | EC50 (MCF7) [µg/mL] | EC50 (A549) [µg/mL] | LC50 [1] [µg/mL] | EC50 (A498) [µg/mL] | LC50 (Aedes aegypti) [µg/mL] | EC50 (HT-29) [µg/mL] |
| --- | --- | --- | --- | --- | --- | --- | --- | --- |
| CC(=O)O[C@H]1C[C@@H](OC(C)=O)[C@@]2(C)CO[C@@H]3[C@@H](O)[C@@]4(C)C5=CC[C@@H](c6ccoc6)[C@]5(C)CC[C@@H]4[C@]1(C)[C@@H]32 | 3.06 (≈ 5.97 µM) | 2.78 (≈ 5.42 µM) | 2.42 (≈ 4.72 µM) | 3.29 (≈ 6.42 µM) | 10 (≈ 19.5 µM) | 3.35 (≈ 6.53 µM) | 29.2 (≈ 56.9 µM) | 3.73 (≈ 7.28 µM) |
| CC(=O)O[C@H]1C[C@@H](OC(=O)c2ccccc2)C(C)(C)[C@@H]2C[C@@H](OC(C)=O)[C@@]3(C)C4=CC[C@@H](C5COC(C)(C)C(=O)C(=O)C5)[C@]4(C)CC[C@@H]3[C@@]12C (some centres not stated) | 0.013 (≈ 0.0188 µM) | 0.0281 (≈ 0.0407 µM) | 6.13 (≈ 8.87 µM) | 1.07 (≈ 1.55 µM) | – | 4.78 (≈ 6.92 µM) | – | 6.25 (≈ 9.05 µM) |
| CC(=O)O[C@H]1C[C@@H](OC(=O)c2ccccc2)C(C)(C)[C@@H]2C[C@@H](OC(C)=O)[C@@]3(C)C4=CC(=O)[C@@H](C5COC(C)(C)C(=O)C(=O)C5)[C@]4(C)CC[C@@H]3[C@@]12C (some centres not stated) [16,23,24-TRIKETOMELIANIN B] | 3.32 (≈ 4.71 µM) | 2.1 (≈ 2.98 µM) | 2.61 (≈ 3.7 µM) | 18.2 (≈ 25.8 µM) | – | 4.15 (≈ 5.89 µM) | – | 6.36 (≈ 9.02 µM) |
| COc1cccc2c1C(=O)c1c(O)c3c(c(O)c1C2=O)C[C@@](O)(C(=O)CO)C[C@@H]3O[C@H]1C[C@H](N)[C@H](O)[C@H](C)O1 [DOXORUBICIN] | 0.0133 (≈ 0.0245 µM) | 0.0276 (≈ 0.0508 µM) | 0.253 (≈ 0.465 µM) | – | – | 0.00424 (≈ 0.0078 µM) | – | 0.0351 (≈ 0.0646 µM) |
| CC(=O)O[C@H]1C[C@@H](OC(=O)c2ccccc2)C(C)(C)[C@@H]2C[C@@H](OC(C)=O)[C@@]3(C)C4=CC[C@@H](C5COC(C)(C)[C@@H](O)[C@H](O)C5)[C@]4(C)CC[C@@H]3[C@@]12C (some centres not stated) [MELIANIN B] | 2.09 (≈ 3.01 µM) | 0.393 (≈ 0.566 µM) | 3.29 (≈ 4.73 µM) | 1.68 (≈ 2.42 µM) | > 100 | 3.67 (≈ 5.28 µM) | > 100 | 2.15 (≈ 3.09 µM) |
| CC(=O)O[C@H]1C[C@@H](OC(=O)c2ccccc2)C(C)(C)[C@@H]2C[C@@H](OC(C)=O)[C@@]3(C)C4=CC[C@@H](C5COC(=O)C5)[C@]4(C)CC[C@@H]3[C@@]12C (some centres not stated) [MELIANIN C] | 20.6 (≈ 33.2 µM) | 0.473 (≈ 0.762 µM) | 14.5 (≈ 23.3 µM) | 21.9 (≈ 35.2 µM) | – | 26.5 (≈ 42.7 µM) | – | 18.1 (≈ 29.1 µM) |
| CC(=O)O[C@@H]1C[C@H](OC(=O)c2ccccc2)[C@@]2(C)[C@H]3[C@H](OC[C@]13C)[C@@H](O)[C@@]1(C)C3=CC[C@@H](c4ccoc4)[C@]3(C)CC[C@@H]12 [MELIAVOLKININ] | 16.7 (≈ 29.1 µM) | 1.02 (≈ 1.77 µM) | 27.8 (≈ 48.4 µM) | 25.4 (≈ 44.1 µM) | 5.37 (≈ 9.34 µM) | 26.9 (≈ 46.8 µM) | 59.7 (≈ 104 µM) | 28.1 (≈ 48.8 µM) |
